Like-named read-outs stand apart in the source and are kept apart here.
Biological target: human 11β-HSD1 (Homo sapiens, UniProt P28845)
Assay: biochemical
Settings: for inhibition at 0.1 µM / inhibition at 0.111 µM: 1.5 h; for IC50: Biological Test Example 2 IC50 Range, microsomes from CHO cells overexpressing human 11β-HSD1, SPA
[1] = read-out: Biological Test Example 2 Average % inhibition at 100 nm, at 100 nm
[2] = read-out: Biological Test Example 2 Average % inhibition at 111 nm, at 111 nm

Chain of human 11β-HSD1 (P28845 whole entry): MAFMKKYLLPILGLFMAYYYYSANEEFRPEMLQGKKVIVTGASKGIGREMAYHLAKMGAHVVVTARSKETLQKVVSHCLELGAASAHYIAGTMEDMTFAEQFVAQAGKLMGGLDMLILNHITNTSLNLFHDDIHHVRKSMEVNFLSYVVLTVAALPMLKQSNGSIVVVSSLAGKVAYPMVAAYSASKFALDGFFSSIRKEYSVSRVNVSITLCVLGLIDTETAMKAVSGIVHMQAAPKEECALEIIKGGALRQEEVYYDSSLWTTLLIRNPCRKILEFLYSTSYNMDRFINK
Description: All reactions are carried out at room temperature in 96 well clear flexible PET Microbeta plates (PerkinElmer). […] The reaction is stopped by adding 50 μl of the SPA beads suspension containing 10 μM 18β-glycyrrhetinic acid, 5 mg/ml protein A coated YSi SPA beads (GE Healthcare) and 3.3 μg/ml of anti-cortisol antibody (East Coast Biologics) in Superblock buffer (Bio-Rad). The plates are then shaken for 120 minutes at room temperature, and the SPA signal corresponding to [^3H]cortisol is measured on a Microbeta plate reader.

SMILES | inhibition at 0.1 µM [1] | IC50 | inhibition at 0.111 µM [2] | inhibition at 0.111 µM (read-out: Biological Test Example 2 Average % inhibition at 111 nm) | inhibition at 0.1 µM (read-out: Biological Test Example 2 Average % inhibition at 100 nm)
N#Cc1ccc(N[C@@H]2CCN(C(=O)OC3C4CC5CC3CC(C(=O)NC3CC3)(C5)C4)C2)nc1 (single isomer, unassigned) [Example 118 Isomer 1] | 9.1% | > 0.1 µM |  |  | 
CC(C)(C)OC(=O)N1C[C@@H]2C[C@H]1CN2C(=O)OC1C2CC3CC(C2)CC1C3 (stereo partly drawn) [Example 7, (1S,4S)-2-tert-butyl 5-(2-adamantyl)-2,5-diazabicyclo[2.2.1]heptane-2,5-dicarboxylate] |  | < 0.1 µM |  |  | 
CC(C)(C)OC(=O)NC1(c2ccccc2)CCN(C(=O)OC2C3CC4CC(C3)CC2C4)C1 (stereo not drawn) [Example 13, (2-adamantyl) 3-(tert-butoxycarbonylamino)-3-phenylpyrrolidine-1-carboxylate] | 87.7% | < 0.1 µM |  |  | 
CC(C)(C)OC(=O)N(CCO)[C@@H]1CCN(C(=O)O[C@H]2C3CC4CC2C[C@](C(N)=O)(C4)C3)C1 [Example 28, (R)-(1-carbamoyl-4-adamantyl) 3-(tert-butoxycarbonyl(2-hydroxyethyl)amino)pyrrolidine-1-carboxylate] |  | < 0.1 µM |  |  | 
Cc1cc(N[C@@H]2CCN(C(=O)O[C@H]3C4CC5CC3C[C@](C(N)=O)(C5)C4)C2)nc(C)n1 [Example 33, (R)-(trans-1-carbamoyl-4-adamantyl) 3-(2,6-dimethylpyrimidin-4-ylamino)pyrrolidine-1-carboxylate] | 78.6% | < 0.1 µM |  |  | 
N#Cc1cccnc1N[C@@H]1CCN(C(=O)O[C@H]2C3CC4CC2C[C@](C(N)=O)(C4)C3)C1 [Example 34, (R)-(trans-1-carbamoyl-4-adamantyl) 3-(3-cyanopyridin-2-ylamino)pyrrolidine-1-carboxylate] | 94.6% | < 0.1 µM |  |  | 
N#Cc1ccc(N[C@@H]2CCN(C(=O)O[C@H]3C4CC5CC3C[C@](C(N)=O)(C5)C4)C2)nc1 [Example 35, (R)-(trans-1-carbamoyl-4-adamantyl) 3-(5-cyanopyridin-2-ylamino)pyrrolidine-1-carboxylate] | 101% | < 0.1 µM |  |  | 
NC(=O)[C@]12CC3CC(C1)[C@@H](OC(=O)N1CC[C@@H](Nc4nnc(C(F)(F)F)s4)C1)C(C3)C2 [Example 42, (R)-(trans-1-carbamoyl-4-adamantyl) 3-(5-(trifluoromethyl)-1,3,4-thiadiazol-2-ylamino)pyrrolidine-1-carboxylate] | 79.3% | < 0.1 µM |  |  | 
CN(c1ccc(C(F)(F)F)cn1)C1CCN(C(=O)O[C@H]2C3CC4CC2C[C@](C(N)=O)(C4)C3)C1 (stereo partly drawn) [Example 43, (trans-1-carbamoyl-4-adamantyl) 3-(methyl(5-(trifluoromethyl)pyridin-2-yl)amino)pyrrolidine-1-carboxylate] | 102% | < 0.1 µM |  |  | 
CN(c1ncccc1C(F)(F)F)C1CCN(C(=O)O[C@H]2C3CC4CC2C[C@](C(N)=O)(C4)C3)C1 (stereo partly drawn) [Example 44, (trans-1-carbamoyl-4-adamantyl) 3-(methyl(3-(trifluoromethyl)pyridin-2-yl)amino)pyrrolidine-1-carboxylate] | 97.2% | < 0.1 µM |  |  | 
CN(c1cccc(C(F)(F)F)n1)C1CCN(C(=O)OC2C3CC4CC2CC(C(N)=O)(C4)C3)C1 (stereo not drawn) [Example 45, (trans-1-carbamoyl-4-adamantyl) 3-(methyl(6-(trifluoromethyl)pyridin-2-yl)amino)pyrrolidine-1-carboxylate] | 97.7% | < 0.1 µM |  |  | 
CC(C)OC(=O)N[C@@H]1CCN(C(=O)NC2C3CC4CC(C3)CC2C4)C1 (stereo partly drawn) [Example 49, (R)-isopropyl 1-((2-adamantyl)carbamoyl)pyrrolidin-3-ylcarbamate] |  | < 0.1 µM | 74.6% |  | 
CC(C)COC(=O)N[C@@H]1CCN(C(=O)NC2C3CC4CC(C3)CC2C4)C1 (stereo partly drawn) [Example 50, (R)-isobutyl 1-((2-adamantyl)carbamoyl)pyrrolidin-3-ylcarbamate] |  | < 0.1 µM | 92.9% |  | 
CC(C)(C)OC(=O)N1CCCC12CCN(C(=O)NC1C3CC4CC(C3)CC1C4)C2 (stereo not drawn) [Example 58, tert-butyl 7-(2-adamantylcarbamoyl)-1,7-diazaspiro[4.4]nonane-1-carboxylate] |  | < 0.1 µM | 94.3% |  | 
CCOC(=O)C1(Nc2ccccc2)CCN(C(=O)NC2C3CC4CC(C3)CC2C4)CC1 (stereo not drawn) [Example 59, Ethyl 1-(2-adamantylcarbamoyl)-4-(phenylamino)piperidine-4-carboxylate] |  | 0.1 to 1 µM |  | 47.5% | 
CC(C)(C)OC(=O)NC1(c2ccccc2)CCN(C(=O)NC2C3CC4CC(C3)CC2C4)C1 (stereo not drawn) [Example 60, tert-butyl 1-(2-adamantylcarbamoyl)-3-phenylpyrrolidin-3-ylcarbamate] |  | < 0.1 µM | 83.3% |  | 

SMILES | inhibition at 0.1 µM [1] | IC50 | inhibition at 0.111 µM [2] | inhibition at 0.111 µM (read-out: Biological Test Example 2 Average % inhibition at 111 nm) | inhibition at 0.1 µM (read-out: Biological Test Example 2 Average % inhibition at 100 nm)
N#Cc1ccc(N[C@@H]2CCN(C(=O)NC3C4CC5CC(C4)CC3C5)C2)nc1 (stereo partly drawn) [Example 61, (R)-3-(5-cyanopyridin-2-ylamino)-N-(2-adamantyl)pyrrolidine-1-carboxamide] |  | < 0.1 µM |  |  | 97.6%
NC(=O)C12CC3CC(C1)C(OC(=O)N1CC[C@@H](Nc4ncccc4F)C1)C(C3)C2 (stereo partly drawn) [Example 63, (R)-(trans-1-carbamoyl-4-adamantyl) 3-(3-fluoropyridin-2-ylamino)pyrrolidine-1-carboxylate] | 98.4% | < 0.1 µM |  |  | 
N#Cc1ccc(N[C@H]2CCN(C(=O)O[C@H]3C4CC5CC3C[C@](C(N)=O)(C5)C4)C2)nc1 [Example 65, (S)-(trans-1-carbamoyl-4-adamantyl) 3-(5-cyanopyridin-2-ylamino)pyrrolidine-1-carboxylate] | 97.1% | < 0.1 µM |  |  | 
N#Cc1cccnc1N[C@H]1CCN(C(=O)O[C@H]2C3CC4CC2C[C@](C(N)=O)(C4)C3)C1 [Example 66, (S)-(trans-1-carbamoyl-4-adamantyl) 3-(3-cyanopyridin-2-ylamino)pyrrolidine-1-carboxylate] | 95.5% | < 0.1 µM |  |  | 
CC1(Nc2ncccc2C#N)CCN(C(=O)O[C@H]2C3CC4CC2C[C@](C(N)=O)(C4)C3)C1 (stereo partly drawn) [Example 67, (trans-1-carbamoyl-4-adamantyl) 3-(3-cyanopyridin-2-ylamino)-3-methylpyrrolidine-1-carboxylate] | 97% | < 0.1 µM |  |  | 
N#Cc1cccnc1NC1CCN(C(=O)O[C@H]2C3CC4CC2C[C@](C(N)=O)(C4)C3)CC1 [Example 68, (1-carbamoyl-4-adamantyl) 4-(3-cyanopyridin-2-ylamino)piperidine-1-carboxylate] | 90.7% | < 0.1 µM |  |  | 
CC1(Nc2ccc(C#N)cn2)CCN(C(=O)O[C@H]2C3CC4CC2C[C@](C(N)=O)(C4)C3)C1 (stereo partly drawn) [Example 69, (trans-1-carbamoyl-4-adamantyl) 3-(5-cyanopyridin-2-ylamino)-3-methylpyrrolidine-1-carboxylate] | 98.7% | < 0.1 µM |  |  | 
COC(=O)C12CC3CC(C1)C(OC(=O)N1CC[C@@H](Nc4ncccc4C#N)C1)C(C3)C2 (stereo partly drawn) [Example 70, (R)-(1-(methoxycarbonyl)-4-adamantyl) 3-(3-cyanopyridin-2-ylamino)pyrrolidine-1-carboxylate] | 78.4% | < 0.1 µM |  |  | 
NC(=O)C1CC2CCCC(C1)C2OC(=O)N1CC[C@@H](Nc2ccc(C(F)(F)F)cn2)C1 (stereo partly drawn) [Example 71, (3R)-3-carbamoylbicyclo[3.3.1]nonan-9-yl 3-(5-(trifluoromethyl)pyridin-2-ylamino)pyrrolidine-1-carboxylate] | 84.2% | < 0.1 µM | 82.6% |  | 
N#Cc1cnc(N[C@@H]2CCN(C(=O)O[C@H]3C4CC5C[C@@H]3C[C@](C(N)=O)(C5)C4)C2)s1 [Example 72, (3R) (1-carbamoyl-4-adamantyl) 3-(5-cyanothiazol-2-ylamino)pyrrolidine-1-carboxylate] | 97.3% | < 0.1 µM | 97.3% |  | 
N#Cc1cccnc1N[C@@H]1CCN(C(=O)O[C@H]2C3CC4CC2C[C@](C#N)(C4)C3)C1 [Example 73, (3R) (trans-1-cyano-4-adamantyl) 3-(3-cyanopyridin-2-ylamino)pyrrolidine-1-carboxylate] | 94.6% | < 0.1 µM |  |  | 
CN(c1ccc(C#N)cn1)C1CCN(C(=O)O[C@H]2C3CC4CC2C[C@](C(N)=O)(C4)C3)C1 (stereo partly drawn) [Example 74, (trans-1-carbamoyl-4-adamantyl) 3-((5-cyanopyridin-2-yl)(methyl)amino)pyrrolidine-1-carboxylate] | 97.8% | < 0.1 µM | 96.5% |  | 
N#Cc1ccc(N2CCCC23CCN(C(=O)O[C@H]2C4CC5CC2C[C@](C(N)=O)(C5)C4)C3)nc1 (stereo partly drawn) [Example 75, (trans-1-carbamoyl-4-adamantyl) 1-(5-cyanopyridin-2-yl)-1,7-diazaspiro[4.4]nonane-7-carboxylate] | 98.8% | < 0.1 µM | 97.7% |  | 
N#Cc1ccc(N2CCC3CN(C(=O)O[C@H]4C5CC6CC4C[C@](C(N)=O)(C6)C5)CC32)nc1 (stereo partly drawn) [Example 76, (trans-1-carbamoyl-4-adamantyl) 1-(5-cyanopyridin-2-yl)hexahydropyrrolo[3,4-b]pyrrole-5(1H)-carboxylate] | 97.9% | < 0.1 µM | 101% |  | 
N#Cc1ccc(N[C@@H]2CCN(C(=O)O[C@H]3C4CC5CC3C[C@](O)(C5)C4)C2)cc1 [Example 78, (R)-(trans-1-hydroxy-4-adamantyl) 3-(4-cyanophenylamino)pyrrolidine-1-carboxylate] | 80.1% | < 0.1 µM |  |  | 
N#Cc1cccnc1N[C@@H]1CCN(C(=O)O[C@H]2C3CC4CC2C[C@](O)(C4)C3)C1 [Example 80, (R)-(trans-1-hydroxy-4-adamantyl) 3-(3-cyanopyridin-2-ylamino)pyrrolidine-1-carboxylate] |  | < 0.1 µM |  |  | 

Reference: US8828985B2, “Carbamate and urea inhibitors of 11-beta-hydroxysteroid dehydrogenase 1” (Vitae Pharmaceuticals, Inc., priority 2008, dated 2014)
